According to patent publication US20120177779A1, “FISH FEEDING STIMULANT AND PRODUCT” (priority 2008, published 2012):

Tests used:
carp [1] = conditions: in vivo
Source text: (§1) The data in FIG. 8 leads to several conclusions. […] Importantly, members of both the ‘A’ and ‘SP’ AA groups are NOT considered to be physiologically significant. […] Thus, as a direct consequence, it is strongly inferred that only AAs belonging to the ‘B’ and ‘LN’ groups are physiologically significant with regard to the fishes' ability to detect forage via the recognition of solvated AAs.

[2] = physiological pH; cited from earlier work
carp [3] = assay: Stimulatory response (average feeding time/fish) to VAL/LYS solutions, FIG. 8; assay type: in vivo
Source text: FIG. 8 is a graph showing stimulatory response as a function of composition for mixtures of L-Valine (V) and L-Lysine (K).
The relationship between stimulatory response (as determined through average feeding time/fish) and AA ratio for a variety of net equimolar mixtures comprised of VAL (V) and LYS (K), as well as reference solutions containing the respective individual AAs is shown in FIG. 8.
as §1

SMILES: NC(=O)CC[C@H](N)C(=O)O [GLU, glutamine]
- physiological distress on exposure (carp [1]): signs of physiological distress

SMILES: N[C@@H](Cc1c[nH]cn1)C(=O)O [L-Histidine]
- fraction protonated [2]: approximately 10%

SMILES: NCCCC[C@H](N)C(=O)O [LYS, L-Lysine]
- stimulatory response (average feeding time/fish) (carp [3]; net equimolar VAL/LYS mixtures and 0.5% single AA reference solutions): significantly enhanced stimulatory response

SMILES: N[C@@H](CO)C(=O)O [SER, serine]
- physiological distress on exposure (carp [1]): signs of physiological distress

SMILES: CC(C)[C@H](N)C(=O)O [VAL, L-Valine]
- stimulatory response relative to that observed for a similar strength LYS solution (carp [3]; similar concentration (0.5%) solution): approximately 50%
